How the values were obtained:
PKC alpha = PKC alpha (Homo sapiens, UniProt P17252); assay: cell-free enzyme assay PKC alpha; type: biochemical
PKC beta = PKC beta (Homo sapiens, UniProt P05771); assay: cell-free enzyme assay PKC beta; type: biochemical
PKC gamma = PKC gamma (Homo sapiens, UniProt P05129); assay: cell-free enzyme assay PKC gamma; type: biochemical
PKC epsilon = target: T1, PKC epsilon (Homo sapiens, UniProt Q02156); assay: cell-free enzyme assay PKC epsilon; type: biochemical
T1 sequence (Q02156 1-737): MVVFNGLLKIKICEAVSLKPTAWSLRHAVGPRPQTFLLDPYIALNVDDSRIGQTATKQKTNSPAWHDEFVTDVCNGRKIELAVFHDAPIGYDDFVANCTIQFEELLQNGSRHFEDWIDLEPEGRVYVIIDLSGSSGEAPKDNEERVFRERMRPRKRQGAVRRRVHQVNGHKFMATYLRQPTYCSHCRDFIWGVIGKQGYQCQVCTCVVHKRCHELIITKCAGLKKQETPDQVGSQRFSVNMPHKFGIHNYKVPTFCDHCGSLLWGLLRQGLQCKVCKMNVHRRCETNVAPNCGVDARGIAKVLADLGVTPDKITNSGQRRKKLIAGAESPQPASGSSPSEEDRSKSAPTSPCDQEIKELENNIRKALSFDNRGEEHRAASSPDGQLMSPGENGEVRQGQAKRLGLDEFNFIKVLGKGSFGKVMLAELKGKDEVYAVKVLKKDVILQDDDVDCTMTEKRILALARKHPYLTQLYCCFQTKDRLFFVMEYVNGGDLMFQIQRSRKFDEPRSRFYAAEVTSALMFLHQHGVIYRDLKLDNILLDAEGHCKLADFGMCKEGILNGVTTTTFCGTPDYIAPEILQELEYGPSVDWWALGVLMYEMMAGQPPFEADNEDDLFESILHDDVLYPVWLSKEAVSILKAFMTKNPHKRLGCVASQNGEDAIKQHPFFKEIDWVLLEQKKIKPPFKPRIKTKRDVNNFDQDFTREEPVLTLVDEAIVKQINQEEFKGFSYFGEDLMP

PKC theta = PKC theta (Homo sapiens, UniProt Q04759); assay: cell-free enzyme assay PKC theta; type: biochemical
PKC theta, sequence (Q04759 whole entry): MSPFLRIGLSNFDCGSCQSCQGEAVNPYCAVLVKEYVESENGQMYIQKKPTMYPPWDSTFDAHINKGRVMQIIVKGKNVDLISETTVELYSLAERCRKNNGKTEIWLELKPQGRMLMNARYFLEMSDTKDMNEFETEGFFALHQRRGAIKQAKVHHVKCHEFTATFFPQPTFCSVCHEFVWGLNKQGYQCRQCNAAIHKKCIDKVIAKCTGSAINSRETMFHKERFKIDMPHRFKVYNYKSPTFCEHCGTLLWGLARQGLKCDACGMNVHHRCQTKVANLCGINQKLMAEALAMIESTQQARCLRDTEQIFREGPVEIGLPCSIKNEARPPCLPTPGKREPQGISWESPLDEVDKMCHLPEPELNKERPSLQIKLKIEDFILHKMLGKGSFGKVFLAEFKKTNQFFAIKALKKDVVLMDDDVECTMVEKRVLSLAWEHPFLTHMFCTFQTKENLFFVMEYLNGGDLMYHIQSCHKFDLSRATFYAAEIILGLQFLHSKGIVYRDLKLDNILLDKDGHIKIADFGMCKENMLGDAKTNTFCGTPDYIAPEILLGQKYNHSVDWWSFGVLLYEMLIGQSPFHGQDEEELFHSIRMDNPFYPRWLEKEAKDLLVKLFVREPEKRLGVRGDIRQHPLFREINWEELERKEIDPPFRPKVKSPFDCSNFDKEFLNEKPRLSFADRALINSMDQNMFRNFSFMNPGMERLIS

CDK-1 = CDK-1 (Homo sapiens, UniProt P06493); assay: cell-free enzyme assay CDK-1; type: biochemical
KDR = KDR (Homo sapiens, UniProt P35968); assay: cell-free enzyme assay KDR; type: biochemical
KDR, sequence (P35968 20-1356, species assumed): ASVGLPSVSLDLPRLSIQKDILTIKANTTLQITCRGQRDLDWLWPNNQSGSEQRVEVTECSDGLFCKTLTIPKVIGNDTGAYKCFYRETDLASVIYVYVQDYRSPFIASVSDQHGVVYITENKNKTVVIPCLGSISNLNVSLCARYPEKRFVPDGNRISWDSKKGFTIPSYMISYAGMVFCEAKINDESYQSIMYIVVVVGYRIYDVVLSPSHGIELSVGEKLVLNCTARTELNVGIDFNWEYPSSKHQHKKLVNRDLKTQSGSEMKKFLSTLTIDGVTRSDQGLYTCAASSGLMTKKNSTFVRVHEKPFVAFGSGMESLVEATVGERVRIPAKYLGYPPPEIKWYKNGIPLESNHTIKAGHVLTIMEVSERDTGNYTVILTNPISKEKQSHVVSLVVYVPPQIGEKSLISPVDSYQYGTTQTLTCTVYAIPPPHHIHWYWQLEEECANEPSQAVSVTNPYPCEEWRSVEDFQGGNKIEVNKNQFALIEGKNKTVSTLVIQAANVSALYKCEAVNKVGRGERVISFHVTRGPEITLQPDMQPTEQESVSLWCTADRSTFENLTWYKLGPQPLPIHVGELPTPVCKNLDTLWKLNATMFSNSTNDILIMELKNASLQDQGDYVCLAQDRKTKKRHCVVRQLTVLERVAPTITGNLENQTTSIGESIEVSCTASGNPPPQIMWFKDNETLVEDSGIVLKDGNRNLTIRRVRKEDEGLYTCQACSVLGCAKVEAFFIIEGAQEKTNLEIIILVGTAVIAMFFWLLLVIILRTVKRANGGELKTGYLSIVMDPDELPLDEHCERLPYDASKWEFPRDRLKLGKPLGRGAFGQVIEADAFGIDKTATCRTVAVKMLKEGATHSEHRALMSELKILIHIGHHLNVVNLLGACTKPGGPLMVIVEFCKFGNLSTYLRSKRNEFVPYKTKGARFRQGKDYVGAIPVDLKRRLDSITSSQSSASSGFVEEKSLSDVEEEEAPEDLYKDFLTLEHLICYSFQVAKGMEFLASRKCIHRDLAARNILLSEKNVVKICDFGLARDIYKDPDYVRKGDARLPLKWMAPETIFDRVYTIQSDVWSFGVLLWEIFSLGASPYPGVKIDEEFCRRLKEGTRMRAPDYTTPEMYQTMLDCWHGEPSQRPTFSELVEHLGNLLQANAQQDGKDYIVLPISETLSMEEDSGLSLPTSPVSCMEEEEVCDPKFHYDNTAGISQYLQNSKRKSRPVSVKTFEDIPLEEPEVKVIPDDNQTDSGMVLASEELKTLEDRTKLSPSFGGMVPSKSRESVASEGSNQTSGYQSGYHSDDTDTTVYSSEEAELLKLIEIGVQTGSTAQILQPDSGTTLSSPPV

Flt-1 = Flt-1 (Homo sapiens, UniProt P17948); assay: cell-free enzyme assay Flt-1; type: biochemical
Flt-2 = Flt-2 (Homo sapiens, UniProt P11362); assay: cell-free enzyme assay Flt-2; type: biochemical
Flt-2, sequence (P11362 22-822, species assumed): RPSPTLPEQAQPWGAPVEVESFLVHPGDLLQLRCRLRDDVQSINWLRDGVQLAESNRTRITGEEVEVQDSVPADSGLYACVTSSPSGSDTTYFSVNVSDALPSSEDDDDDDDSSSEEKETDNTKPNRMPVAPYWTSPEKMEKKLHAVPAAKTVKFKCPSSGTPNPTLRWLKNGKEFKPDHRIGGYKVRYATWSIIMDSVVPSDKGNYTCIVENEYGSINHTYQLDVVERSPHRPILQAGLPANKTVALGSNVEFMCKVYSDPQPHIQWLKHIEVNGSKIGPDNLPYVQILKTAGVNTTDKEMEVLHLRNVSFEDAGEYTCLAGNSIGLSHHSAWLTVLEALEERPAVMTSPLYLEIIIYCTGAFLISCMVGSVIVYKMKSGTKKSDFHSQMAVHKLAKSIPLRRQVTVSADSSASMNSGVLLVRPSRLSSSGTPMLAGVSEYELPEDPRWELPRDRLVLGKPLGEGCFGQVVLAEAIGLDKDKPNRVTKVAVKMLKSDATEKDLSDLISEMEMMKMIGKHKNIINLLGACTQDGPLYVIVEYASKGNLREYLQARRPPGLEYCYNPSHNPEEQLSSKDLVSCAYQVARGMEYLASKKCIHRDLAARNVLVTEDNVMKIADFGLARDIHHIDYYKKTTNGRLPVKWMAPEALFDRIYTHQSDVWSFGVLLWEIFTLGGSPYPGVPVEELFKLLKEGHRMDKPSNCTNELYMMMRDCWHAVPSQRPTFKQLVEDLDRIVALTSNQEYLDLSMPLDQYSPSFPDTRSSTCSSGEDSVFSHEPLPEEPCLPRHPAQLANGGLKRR

Flt-3 = target: T2, Flt-3 (Homo sapiens, UniProt P36888); assay: cell-free enzyme assay Flt-3; type: biochemical
T2 sequence (P36888 27-993): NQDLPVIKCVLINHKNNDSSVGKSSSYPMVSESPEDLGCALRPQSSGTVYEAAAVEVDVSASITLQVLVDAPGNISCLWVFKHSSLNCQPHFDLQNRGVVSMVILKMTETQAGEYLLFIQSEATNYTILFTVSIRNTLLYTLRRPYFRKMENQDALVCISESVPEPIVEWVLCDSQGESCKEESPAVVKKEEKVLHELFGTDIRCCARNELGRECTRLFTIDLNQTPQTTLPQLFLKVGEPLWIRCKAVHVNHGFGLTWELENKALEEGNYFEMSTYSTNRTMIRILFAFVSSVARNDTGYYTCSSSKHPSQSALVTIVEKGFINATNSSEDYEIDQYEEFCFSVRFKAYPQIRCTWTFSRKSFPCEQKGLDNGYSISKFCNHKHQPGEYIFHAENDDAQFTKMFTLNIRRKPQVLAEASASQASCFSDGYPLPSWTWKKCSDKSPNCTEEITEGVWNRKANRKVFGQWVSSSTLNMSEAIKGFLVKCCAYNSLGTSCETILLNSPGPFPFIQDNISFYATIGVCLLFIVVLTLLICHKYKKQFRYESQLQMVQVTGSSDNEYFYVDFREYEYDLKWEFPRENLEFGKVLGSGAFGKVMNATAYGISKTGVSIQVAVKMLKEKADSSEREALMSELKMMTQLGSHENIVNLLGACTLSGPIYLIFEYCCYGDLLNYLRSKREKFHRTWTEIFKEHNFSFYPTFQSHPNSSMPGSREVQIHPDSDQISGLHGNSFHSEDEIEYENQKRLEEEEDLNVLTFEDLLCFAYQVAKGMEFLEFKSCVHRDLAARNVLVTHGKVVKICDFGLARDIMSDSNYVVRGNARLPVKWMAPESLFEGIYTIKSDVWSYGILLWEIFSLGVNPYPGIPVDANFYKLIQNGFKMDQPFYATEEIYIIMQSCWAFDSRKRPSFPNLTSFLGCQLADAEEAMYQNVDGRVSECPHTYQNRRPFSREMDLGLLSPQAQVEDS

Flt-4 = Flt-4 (Homo sapiens, UniProt P35916); assay: cell-free enzyme assay Flt-4; type: biochemical
Flt-4, sequence (P35916 25-1363, species assumed): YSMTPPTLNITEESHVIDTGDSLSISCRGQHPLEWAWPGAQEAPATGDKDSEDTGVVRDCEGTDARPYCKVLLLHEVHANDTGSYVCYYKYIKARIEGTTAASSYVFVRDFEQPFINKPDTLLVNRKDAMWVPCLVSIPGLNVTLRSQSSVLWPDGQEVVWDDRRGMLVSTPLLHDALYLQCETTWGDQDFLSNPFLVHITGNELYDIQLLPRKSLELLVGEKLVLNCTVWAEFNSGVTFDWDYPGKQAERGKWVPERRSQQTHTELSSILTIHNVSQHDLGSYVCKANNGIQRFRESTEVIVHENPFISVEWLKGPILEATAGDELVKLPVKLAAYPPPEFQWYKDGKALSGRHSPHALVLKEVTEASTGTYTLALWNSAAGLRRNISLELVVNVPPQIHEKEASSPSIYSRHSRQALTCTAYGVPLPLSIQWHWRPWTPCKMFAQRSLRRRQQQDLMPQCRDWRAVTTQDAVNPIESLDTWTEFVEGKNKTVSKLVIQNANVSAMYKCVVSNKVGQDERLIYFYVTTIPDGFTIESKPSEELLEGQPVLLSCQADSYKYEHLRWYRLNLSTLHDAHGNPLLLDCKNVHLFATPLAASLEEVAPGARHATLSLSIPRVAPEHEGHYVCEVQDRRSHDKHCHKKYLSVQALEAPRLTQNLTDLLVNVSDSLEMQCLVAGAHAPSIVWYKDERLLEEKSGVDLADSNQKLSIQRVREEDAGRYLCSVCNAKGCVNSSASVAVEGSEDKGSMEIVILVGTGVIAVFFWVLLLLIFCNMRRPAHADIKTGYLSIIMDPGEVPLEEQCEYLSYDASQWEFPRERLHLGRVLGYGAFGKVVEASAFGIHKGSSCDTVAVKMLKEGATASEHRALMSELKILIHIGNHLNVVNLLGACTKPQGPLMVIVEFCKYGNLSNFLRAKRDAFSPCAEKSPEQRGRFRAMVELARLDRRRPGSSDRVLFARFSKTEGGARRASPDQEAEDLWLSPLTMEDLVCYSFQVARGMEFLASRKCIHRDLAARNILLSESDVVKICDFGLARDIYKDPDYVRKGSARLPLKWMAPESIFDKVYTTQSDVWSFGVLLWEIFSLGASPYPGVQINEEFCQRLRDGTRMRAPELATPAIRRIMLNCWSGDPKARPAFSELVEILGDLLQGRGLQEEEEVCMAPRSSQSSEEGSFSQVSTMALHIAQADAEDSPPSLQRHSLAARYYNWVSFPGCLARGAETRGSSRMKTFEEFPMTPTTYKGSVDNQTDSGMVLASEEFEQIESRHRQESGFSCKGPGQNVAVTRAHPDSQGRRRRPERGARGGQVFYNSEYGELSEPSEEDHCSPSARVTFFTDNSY

[1] = tested on: Aβ secretion in HEK/APPswe cells; assay: Aβ secretion in HEK/APPswe cell culture medium (sandwich ELISA); type: cell-based; conditions: HEK/APPswe cell cultures, 24 hours after compound addition
Method: HEK/APPswe cells are plated in microtiter plates precoated with 10 μg/ml poly-D-lysine at 12′000 cells/well in 100 μl/well DMEM medium supplemented with 10% FCS, 0.25 mg/ml G418 sulfate, 1% penicillin streptomycin. The following day, supernatant is replaced with 90 μl/well of fresh medium and 10 μl/well of compound diluted in culture medium are added. Two types of control wells are used: cell culture medium without cells plus 10 μl/well of all compound dilutions (background signals) and cell culture medium from untreated cells (positive control). 24 hours later after compound addition, conditioned medium is collected and Aβ levels determined by a specific sandwich ELISA.
For the sandwich ELISA, the maxisorp microtiterplates are coated overnight at 4° C. with 100 μl/well of the monoclonal antibody 25H 10 diluted 1:1000 in PB for Aβ40 detection or monoclonal antibody B10E7 diluted 1:2750 for detection of Aβ42. […] After 1 hour incubation at room temperature wells are washed as described above and alkaline phosphatase activity is determined by adding 100 μl/well of diethanolamine buffer, pH 9.8 (100 mM diethanolamine, 1 mM MgCl2, pH adjusted to 9.8 with 2 M HCl) containing the chemiluminescent CSPD substrate (25 mM stock solution diluted 1:416) and the enhancer Emerald II (diluted 1:10). […] Samples are measured in triplicate. […]

HEK/APPswe cells = assay: MTS assay (cytotoxicity); type: cell-based; conditions: at concentrations below 1 microM
Method: To determine cytotoxicity, cells are tested by the MTS colorimetric kit performed essentially according to the manufacturer's specifications (Promega, #G5430X). After collecting the conditioned medium for the sandwich ELISA, the rest of the conditioned medium is removed completely and replaced with 100 μl/well culture medium containing one fifth of MTS solution prepared as recommended in the kit. After 3 hours incubation at 37° C., absorbance is read at an OD of 490 nm with a reference wavelength set to 630 nm. Values are given as % metabolic rate (n=6). The 0% value is calculated from wells which had no cells, 100% from wells with an untreated cell layer

PKC beta, sequence (P05771 whole entry, species assumed): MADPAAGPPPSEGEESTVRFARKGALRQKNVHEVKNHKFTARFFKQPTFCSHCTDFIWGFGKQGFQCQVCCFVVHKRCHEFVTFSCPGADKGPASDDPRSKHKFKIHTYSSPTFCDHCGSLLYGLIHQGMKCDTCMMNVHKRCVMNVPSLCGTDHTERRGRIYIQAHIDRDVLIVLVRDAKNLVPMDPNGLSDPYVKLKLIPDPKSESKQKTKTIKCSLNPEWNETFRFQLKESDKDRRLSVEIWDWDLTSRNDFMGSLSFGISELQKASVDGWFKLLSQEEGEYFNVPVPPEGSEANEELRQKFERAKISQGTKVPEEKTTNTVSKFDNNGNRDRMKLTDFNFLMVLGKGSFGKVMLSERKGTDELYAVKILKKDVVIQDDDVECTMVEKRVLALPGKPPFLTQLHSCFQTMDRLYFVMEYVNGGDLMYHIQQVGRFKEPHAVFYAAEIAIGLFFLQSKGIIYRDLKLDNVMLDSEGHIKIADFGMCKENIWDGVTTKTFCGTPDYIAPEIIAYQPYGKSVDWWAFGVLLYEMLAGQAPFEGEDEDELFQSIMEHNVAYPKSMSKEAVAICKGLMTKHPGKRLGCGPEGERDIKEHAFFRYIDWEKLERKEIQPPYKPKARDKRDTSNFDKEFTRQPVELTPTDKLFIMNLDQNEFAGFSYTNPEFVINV

activity in cell-free enzyme assay, PKC alpha (PKC alpha): 21 nM | activity in cell-free enzyme assay, PKC beta (PKC beta): 30 nM | activity in cell-free enzyme assay, PKC gamma (PKC gamma): <500 nM | activity in cell-free enzyme assay, PKC epsilon (PKC epsilon): 514 nM | activity in cell-free enzyme assay, PKC theta (PKC theta): 186 nM | activity in cell-free enzyme assay, CDK-1 (CDK-1): <10 µM | activity in cell-free enzyme assay, KDR (KDR): <10 µM | activity in cell-free enzyme assay, Flt-1 (Flt-1): <10 µM | activity in cell-free enzyme assay, Flt-2 (Flt-2): <10 µM | activity in cell-free enzyme assay, Flt-3 (Flt-3): <10 µM | activity in cell-free enzyme assay, Flt-4 (Flt-4): <10 µM
Structure (SMILES): CN1CCN(c2cc(C3=C(c4c[nH]c5ccccc45)C(=O)NC3=O)c(Cl)c(C(F)(F)F)c2)CC1 [Example 2, 3-[2-Chloro-5-(4-methyl-piperazin-1-yl)-3-trifluoromethyl-phenyl]-4-(1H-indol-3-yl)-pyrrole-2,5-dione]
concentration giving a clear reduction of Aβ secretion in the medium [1]: below 1 microM | effect on cellular viability (HEK/APPswe cells): without having any effect on cellular viability
